# Where two headings read alike, the source gives them in different places. The star is where a group is joined. Cbz = O=C(OCc1ccccc1)*; CH2F = FC*
# Columns and labels:
# [1] = test system: NCI-H1299 (lung cancer) cells; experiment: Cytotoxicity of NK cells after caspase-8 inhibitor treatment (NCI-H1299); format: cell-based; settings: NK cells treated with Z-IETD-FMK 2 μM for 24 hours, co-cultured 48 hours
# Procedure: (§1) NK cells are treated with Z-IETD-FMK (2 μM), an inhibitory peptide against apoptosis-related activity of Caspase-8, for 24 hours and then co-cultured with NCI-H1299 (lung cancer) or PC-3 (prostate cancer) cells for 48 hours.
# [2] = test system: PC-3 (prostate cancer) cells; experiment: Cytotoxicity of NK cells after caspase-8 inhibitor treatment (PC-3); format: cell-based; settings: NK cells treated with Z-IETD-FMK 2 μM for 24 hours, co-cultured 48 hours
# Procedure: as §1
# [3] = test system: sGITRL-induced NK cell death; experiment: NK cell survival after sGITRL treatment (trypan blue); format: cell-based, human; settings: then 5 ng/mL sGITRL for two days
# [4] = test system: Fas-L-induced NK cell death; experiment: NK cell survival after Fas-L treatment (trypan blue); format: cell-based, human; settings: FIG. 1D; Z-IETD-FMK 2 μM pretreatment 24 hours, then 5 ng/mL Fas-L for two days
# [5] = test system: SK-4 (stomach cancer) cells; experiment: Cytotoxicity of NK cells after TGF-β receptor inhibitor treatment (SK-4); format: cell-based; settings: NK cells treated with LY2157299 100 nM for 24 hours, co-cultured 48 hours
# Procedure: (§2) NK cells are treated with LY2157299 (100 nM), a compound inhibiting kinases related to TGF-β receptor signaling, for 24 hours and then co-cultured with SK-4 (stomach cancer) or HCT-15 (colon cancer) cells for 48 hours.
# [6] = test system: HCT-15 (colon cancer) cells; experiment: Cytotoxicity of NK cells after TGF-β receptor inhibitor treatment (HCT-15); format: cell-based; settings: NK cells treated with LY2157299 100 nM for 24 hours, co-cultured 48 hours
# Procedure: as §2
# [7] = test system: TGF-β-induced NK cell death; experiment: NK cell survival after TGF-β treatment (trypan blue); format: cell-based, human; settings: FIG. 1E; LY2157299 100 nM pretreatment 24 hours, then 1 ng/mL TGF-β for two days
# [8] = test system: AGS (the stomach cancer cell line); settings: FIG. 6A; pretreatment 24 hrs (30, 100 and 300 μM); E:T 0.5:1, 48 hrs
# [9] = test system: MDA-MB-231 (the breast cancer cell line); settings: FIG. 6B; pretreatment 24 hrs (30, 100 and 300 μM); E:T 0.5:1, 48 hrs
# [10] = test system: human NK cells; settings: cited from earlier work; for NK cytotoxicity / NK cytokine production: direct exposure of human NK cells with pharmacological doses, in vitro (Krieg and Ullrich 2013)
# [11] = test system: SNU-387 (the liver cancer cell line); experiment: 2 day cytotoxicity assay of kinase inhibitor pretreated NK cells against SNU-387
# [12] = test system: SNU-245 (the biliary tract cancer cell line); experiment: 2 day cytotoxicity assay against SNU-245 cells (pretreated or formulated NK cells, or ponatinib alone)
# [13] = FIG. 7B, pretreatment 24 hrs, E:T 0.5:1, 48 hrs
# [14] = FIG. 7A, pretreatment 24 hrs, E:T 0.5:1, 48 hrs
# [15] = resting and IL-2-activated NK cells (Krusch et al. 2009)
molecule,measurement,setting,value
Cbz-IETD-CH2F,Cytotoxicity of NK Cells to NCI-H1299 Cells,"[1]; E:T = 0.1:1, With IL-2",33%
same,Cytotoxicity of NK Cells to NCI-H1299 Cells,"[1]; E:T = 0.1:1, Without IL-2",25%
same,Cytotoxicity of NK Cells to NCI-H1299 Cells,"[1]; E:T = 0.5:1, With IL-2",58%
same,Cytotoxicity of NK Cells to NCI-H1299 Cells,"[1]; E:T = 0.5:1, Without IL-2",34%
same,Cytotoxicity of NK Cells to PC-3 Cells,"[2]; E:T = 0.1:1, W/ IL-2",76%
same,Cytotoxicity of NK Cells to PC-3 Cells,"[2]; E:T = 0.1:1, W/O IL-2",48%
same,Cytotoxicity of NK Cells to PC-3 Cells,"[2]; E:T = 0.5:1, W/ IL-2",96%
same,Cytotoxicity of NK Cells to PC-3 Cells,"[2]; E:T = 0.5:1, W/O IL-2",78%
same,cell death induced by sGITRL (NK cell survival rate),"[3]; FIG. 1D, Z-IETD-FMK 2 μM pretreatment 24 hours",suppressed cell death
same,cell death induced by Fas-L (NK cell survival rate),[4],suppressed cell death
Cc1cccc(-c2nn3c(c2-c2ccnc4ccc(C(N)=O)cc24)CCC3)n1 [LY2157299],Cytotoxicity of NK Cells to SK-4 Cells,"[5]; E:T = 0.1:1, With IL-2",39%
same,Cytotoxicity of NK Cells to SK-4 Cells,"[5]; E:T = 0.1:1, Without IL-2",27%
same,Cytotoxicity of NK Cells to SK-4 Cells,"[5]; E:T = 05:1, With IL-2",59%
same,Cytotoxicity of NK Cells to SK-4 Cells,"[5]; E:T = 05:1, Without IL-2",35%
same,Cytotoxicity of NK Cells to HCT-15 Cells,"[6]; E:T = 0.1:1, W/ IL-2",86%
same,Cytotoxicity of NK Cells to HCT-15 Cells,"[6]; E:T = 0.1:1, W/O IL-2",68%
same,Cytotoxicity of NK Cells to HCT-15 Cells,"[6]; E:T = 05:1, W/ IL-2",98%
same,Cytotoxicity of NK Cells to HCT-15 Cells,"[6]; E:T = 05:1, W/O IL-2",82%
same,cell death induced by sGITRL (NK cell survival rate),"[3]; FIG. 1E, LY2157299 100 nM pretreatment 24 hours",suppressed cell death
same,cell death induced by TGF-β (NK cell survival rate),[7],suppressed cell death
Cc1nc(Nc2ncc(C(=O)Nc3c(C)cccc3Cl)s2)cc(N2CCN(CCO)CC2)n1 [dasatinib],anti-cancer cytotoxicity of kinase inhibitor pretreated NK cells against AGS vs untreated NK cells,[8],did not show any differences
same,anti-cancer cytotoxicity of kinase inhibitor pretreated NK cells against MDA-MB-231 vs untreated NK cells,[9],did not show any differences
same,NK cytotoxicity,[10],abrogated cytotoxicity
same,anti-cancer cytotoxicity of kinase inhibitor pretreated NK cells against SNU-387 vs untreated NK cells,[11]; [13],did not increase
same,anti-cancer cytotoxicity of kinase inhibitor pretreated NK cells against SNU-245 vs untreated NK cells,[12]; [14],slightly increased anticancer activity
Cc1ccc(NC(=O)c2ccc(CN3CCN(C)CC3)cc2)cc1Nc1nccc(-c2cccnc2)n1 [imatinib],anti-cancer cytotoxicity of kinase inhibitor pretreated NK cells against AGS vs untreated NK cells,[8],did not show any differences
same,anti-cancer cytotoxicity of kinase inhibitor pretreated NK cells against MDA-MB-231 vs untreated NK cells,[9],did not show any differences
same,NK cytokine production,[10],no impact
same,NK cytotoxicity,[10],no impact
same,anti-cancer cytotoxicity of kinase inhibitor pretreated NK cells against SNU-387 vs untreated NK cells,[11]; [13],did not increase
same,anti-cancer cytotoxicity of kinase inhibitor pretreated NK cells against SNU-245 vs untreated NK cells,[12]; [14],did not increase
CCN(CC)CCNC(=O)c1c(C)[nH]c(/C=C2\C(=O)Nc3ccc(F)cc32)c1C [sunitinib],anti-cancer cytotoxicity of kinase inhibitor pretreated NK cells against AGS vs untreated NK cells,[8],did not show any differences
same,anti-cancer cytotoxicity of kinase inhibitor pretreated NK cells against MDA-MB-231 vs untreated NK cells,[9],did not show any differences
same,cytotoxicity of NK cells in response to tumor targets,[10],concentration dependently inhibited
same,anti-cancer cytotoxicity of kinase inhibitor pretreated NK cells against SNU-387 vs untreated NK cells,[11],did not increase
same,anti-cancer cytotoxicity of kinase inhibitor pretreated NK cells against SNU-245 vs untreated NK cells,[12],did not increase
COc1cc2c(Nc3ccc(Br)cc3F)ncnc2cc1OCC1CCN(C)CC1 [vandetanib],anti-cancer cytotoxicity of kinase inhibitor pretreated NK cells against SNU-387 vs untreated NK cells,[11]; [13],did not increase
same,anti-cancer cytotoxicity of kinase inhibitor pretreated NK cells against SNU-245 vs untreated NK cells,[12]; [14],did not increase
CNC(=O)c1cc(Oc2ccc(NC(=O)Nc3ccc(Cl)c(C(F)(F)F)c3)cc2)ccn1 [sorafenib],anti-cancer cytotoxicity of kinase inhibitor pretreated NK cells against AGS vs untreated NK cells,[8],did not show any differences
same,anti-cancer cytotoxicity of kinase inhibitor pretreated NK cells against MDA-MB-231 vs untreated NK cells,[9],did not show any differences
same,IFN-γ production of NK cells in response to tumor targets,[10]; [15],concentration dependently inhibited
same,cytotoxicity of NK cells in response to tumor targets,[10]; [15],concentration dependently inhibited
same,anti-cancer cytotoxicity of kinase inhibitor pretreated NK cells against SNU-387 vs untreated NK cells,[11]; [13],did not increase
same,anti-cancer cytotoxicity of kinase inhibitor pretreated NK cells against SNU-245 vs untreated NK cells,[12]; [14],did not increase
COc1cc(Nc2c(C#N)cnc3cc(OCCCN4CCN(C)CC4)c(OC)cc23)c(Cl)cc1Cl [bosutinib],anti-cancer cytotoxicity of kinase inhibitor pretreated NK cells against SNU-387 vs untreated NK cells,[11]; [13],did not increase
same,anti-cancer cytotoxicity of kinase inhibitor pretreated NK cells against SNU-245 vs untreated NK cells,[12]; [14],did not increase
Cc1cn(-c2cc(NC(=O)c3ccc(C)c(Nc4nccc(-c5cccnc5)n4)c3)cc(C(F)(F)F)c2)cn1 [nilotinib],anti-cancer cytotoxicity of kinase inhibitor pretreated NK cells against AGS vs untreated NK cells,[8],did not show any differences
same,anti-cancer cytotoxicity of kinase inhibitor pretreated NK cells against MDA-MB-231 vs untreated NK cells,[9],did not show any differences
same,NK cytokine production,[10],negatively influenced
same,anti-cancer cytotoxicity of kinase inhibitor pretreated NK cells against SNU-387 vs untreated NK cells,[11]; [13],did not increase
same,anti-cancer cytotoxicity of kinase inhibitor pretreated NK cells against SNU-245 vs untreated NK cells,[12]; [14],did not increase
